Experimental data published in patent publication US10131652B2, “Pyrimidinyloxy benzene derivatives as herbicides” (E. I. DU PONT DE NEMOURS AND COMPANY, priority 2014, dated 2018).

Assays:
Type in all cases: in vivo
[1] = system: blackgrass (Alopecurus myosuroides); test: Test B postemergence plant response
Outline: (§1)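 Visual injury ratings, 0 = no effect to 100 = complete control, versus untreated controls approximately 10 days after postemergence spraying in greenhouse. Plants were at one- to two-leaf stage, 2 to 10 cm tall, in loam soil/sand blend; a dash denotes no result.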

[2] = system: galium (catchweed bedstraw, Galium aparine); test: Test B postemergence plant response
Outline: as §1

[3] = system: chickweed (common chickweed, Stellaria media); test: Test D postemergence plant response; conditions: for Plant response rating (scale 0 to 100), Chickweed: 16 g ai/ha; for Chickweed plant response rating: 31 g ai/ha, scale 0 to 100 (0 no effect, 100 complete control); for Plant response rating, Chickweed: scale 0 to 100, 0 no effect, 100 complete control
Outline: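 The formulated test chemicals were applied over the foliage of young potted plants (2 to 18 cm tall), which were then held under greenhouse conditions. Between days 13 and 15 each species was rated by eye versus controls, from 0 for no effect up to 100 for complete control.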

[4] = system: corn (Zea mays); test: Test D pre-/postemergence plant response; conditions: Postemergence; for Plant response rating (scale 0 to 100), Corn: 16 g ai/ha; for Corn plant response rating: 31 g ai/ha, scale 0 to 100 (0 no effect, 100 complete control); for Plant response rating, Corn: scale 0 to 100, 0 no effect, 100 complete control
Outline: (§2)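 0 = no effect, 100 = complete control: plants were scored this way by visual comparison with controls 13 to 15 days post-treatment. Application was preemergence to sown loam/sand pots or postemergence to 2–18 cm seedlings in peat-based mix.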

[5] = system: yellow nutsedge (Cyperus esculentus); test: Test D pre-/postemergence plant response; conditions: Postemergence; for Plant response rating (scale 0 to 100), Nutsedge, Yellow: 16 g ai/ha; for Plant response rating, Nutsedge, Yellow: 125 g ai/ha
Outline: as §2

[6] = system: soybean (Glycine max); test: Test D pre-/postemergence plant response; conditions: Postemergence; for Plant response rating (scale 0 to 100), Soybean: 16 g ai/ha; for Plant response rating, Soybean: 125 g ai/ha
Outline: as §2

[7] = system: pigweed (Amaranthus retroflexus); test: Test D pre-/postemergence plant response; conditions: Postemergence; for Plant response rating (scale 0 to 100), Pigweed: 16 g ai/ha; for Plant response rating, Pigweed: 125 g ai/ha
Outline: as §2

[8] = system: waterhemp (common waterhemp, Amaranthus rudis); test: Test D pre-/postemergence plant response; conditions: Postemergence; for Plant response rating (scale 0 to 100), Waterhemp: 16 g ai/ha; for Plant response rating, Waterhemp: 125 g ai/ha
Outline: as §2

[9] = system: giant foxtail (Setaria faberii); test: Test D pre-/postemergence plant response; conditions: Postemergence; for Plant response rating (scale 0 to 100), Foxtail, Giant: 16 g ai/ha; for Foxtail, Giant plant response rating: 31 g ai/ha, scale 0 to 100 (0 no effect, 100 complete control); for Plant response rating, Foxtail, Giant: scale 0 to 100, 0 no effect, 100 complete control
Outline: as §2

[10] = system: ragweed (common ragweed, Ambrosia elatior); test: Test D pre-/postemergence plant response; conditions: Postemergence; for Plant response rating (scale 0 to 100), Ragweed: 16 g ai/ha; for Plant response rating, Ragweed: 125 g ai/ha
Outline: as §2

[11] = system: morningglory (Ipomoea coccinea); test: Test D pre-/postemergence plant response; conditions: Postemergence; for Plant response rating (scale 0 to 100), Morningglory: 16 g ai/ha; for Plant response rating, Morningglory: 125 g ai/ha
Outline: as §2

[12] = system: Italian ryegrass (Lolium multiflorum); test: Test D pre-/postemergence plant response; conditions: Postemergence; for Plant response rating (scale 0 to 100), Ryegrass, Italian: 16 g ai/ha; for Plant response rating, Ryegrass, Italian: 125 g ai/ha
Outline: as §2

[13] = system: barnyardgrass (Echinochloa crus-galli); test: Test D pre-/postemergence plant response; conditions: Postemergence; for Plant response rating (scale 0 to 100), Barnyardgrass: 16 g ai/ha; for Barnyardgrass plant response rating: 31 g ai/ha, scale 0 to 100 (0 no effect, 100 complete control); for Plant response rating, Barnyardgrass: scale 0 to 100, 0 no effect, 100 complete control
Outline: as §2

[14] = system: oilseed rape (Brassica napus); test: Test D pre-/postemergence plant response; conditions: Postemergence; for Plant response rating (scale 0 to 100), Oilseed Rape: 16 g ai/ha; for Plant response rating, Oilseed Rape: 125 g ai/ha
Outline: as §2

[15] = 125 g ai/ha, postemergence, 0 to 100 scale, 0 no effect, 100 complete control
[16] = Postemergence, 31 g ai/ha, 0 to 100 scale (0 no effect, 100 complete control)
[17] = 31 g ai/ha, scale 0 to 100 (0 no effect, 100 complete control)
[18] = 62 g ai/ha, scale 0 to 100, 0 no effect, 100 complete control
[19] = scale 0 to 100, 0 no effect, 100 complete control

Fc1ccc(Oc2ncc(Cl)cn2)c(-c2cc(C(F)(Cl)Cl)on2)c1 [Compound 221]
Plant response rating, Blackgrass [1, 15]: 60
Plant response rating, Blackgrass [1, 16]: 30
Plant response rating, Galium [2, 15]: 100
Plant response rating, Galium [2, 16]: 90
Plant response rating (scale 0 to 100), Chickweed [3]: 75
Chickweed plant response rating [3]: 85
Plant response rating, Chickweed ([3]; 62 g ai/ha): 80
Plant response rating, Chickweed ([3]; 125 g ai/ha): 100
Plant response rating (scale 0 to 100), Corn [4]: 0
Corn plant response rating [4]: 0
Plant response rating, Corn ([4]; 62 g ai/ha): 5
Plant response rating, Corn ([4]; 125 g ai/ha): 10
Plant response rating (scale 0 to 100), Nutsedge, Yellow [5]: 5
Nutsedge, Yellow plant response rating [5, 17]: 5
Nutsedge, Yellow plant response rating [5, 18]: 5
Plant response rating, Nutsedge, Yellow [5, 19]: 10
Plant response rating (scale 0 to 100), Soybean [6]: 35
Soybean plant response rating [6, 17]: 25
Soybean plant response rating [6, 18]: 85
Plant response rating, Soybean [6, 19]: 90
Plant response rating (scale 0 to 100), Pigweed [7]: 95
Pigweed plant response rating [7, 17]: 95
Pigweed plant response rating [7, 18]: 98
Plant response rating, Pigweed [7, 19]: 100
Plant response rating (scale 0 to 100), Waterhemp [8]: 70
Waterhemp plant response rating [8, 17]: 85
Waterhemp plant response rating [8, 18]: 100
Plant response rating, Waterhemp [8, 19]: 100
Plant response rating (scale 0 to 100), Foxtail, Giant [9]: 35
Foxtail, Giant plant response rating [9]: 5
Plant response rating, Foxtail, Giant ([9]; 62 g ai/ha): 5
Plant response rating, Foxtail, Giant ([9]; 125 g ai/ha): 35
Plant response rating (scale 0 to 100), Ragweed [10]: 35
Ragweed plant response rating [10, 17]: 50
Ragweed plant response rating [10, 18]: 45
Plant response rating, Ragweed [10, 19]: 75
Plant response rating (scale 0 to 100), Morningglory [11]: 65
Morningglory plant response rating [11, 17]: 65
Morningglory plant response rating [11, 18]: 80
Plant response rating, Morningglory [11, 19]: 85
Plant response rating (scale 0 to 100), Ryegrass, Italian [12]: 5
Ryegrass, Italian plant response rating [12, 17]: 5
Ryegrass, Italian plant response rating [12, 18]: 20
Plant response rating, Ryegrass, Italian [12, 19]: 10
Plant response rating (scale 0 to 100), Barnyardgrass [13]: 0
Barnyardgrass plant response rating [13]: 5
Plant response rating, Barnyardgrass ([13]; 62 g ai/ha): 5
Plant response rating, Barnyardgrass ([13]; 125 g ai/ha): 10
Plant response rating (scale 0 to 100), Oilseed Rape [14]: 70
Oilseed Rape plant response rating [14, 17]: 70
Oilseed Rape plant response rating [14, 18]: 90
Plant response rating, Oilseed Rape [14, 19]: 90

FCc1cc(-c2ccccc2Oc2ncc(Cl)cn2)on1 [Compound 224]
Plant response rating, Blackgrass [1, 15]: 70
Plant response rating, Blackgrass [1, 16]: 40
Plant response rating, Galium [2, 15]: 100
Plant response rating, Galium [2, 16]: 80
Plant response rating (scale 0 to 100), Chickweed [3]: 10
Chickweed plant response rating [3]: 15
Plant response rating, Chickweed ([3]; 62 g ai/ha): 40
Plant response rating, Chickweed ([3]; 125 g ai/ha): 80
Plant response rating (scale 0 to 100), Corn [4]: 0
Corn plant response rating [4]: 5
Plant response rating, Corn ([4]; 62 g ai/ha): 5
Plant response rating, Corn ([4]; 125 g ai/ha): 5
Plant response rating (scale 0 to 100), Nutsedge, Yellow [5]: 0
Nutsedge, Yellow plant response rating [5, 17]: 0
Nutsedge, Yellow plant response rating [5, 18]: 5
Plant response rating, Nutsedge, Yellow [5, 19]: 5
Plant response rating (scale 0 to 100), Soybean [6]: 35
Soybean plant response rating [6, 17]: 40
Soybean plant response rating [6, 18]: 65
Plant response rating, Soybean [6, 19]: 75
Plant response rating (scale 0 to 100), Pigweed [7]: 85
Pigweed plant response rating [7, 17]: 85
Pigweed plant response rating [7, 18]: 85
Plant response rating, Pigweed [7, 19]: 90
Plant response rating (scale 0 to 100), Waterhemp [8]: 70
Waterhemp plant response rating [8, 17]: 75
Waterhemp plant response rating [8, 18]: 85
Plant response rating, Waterhemp [8, 19]: 85
Plant response rating (scale 0 to 100), Foxtail, Giant [9]: 0
Foxtail, Giant plant response rating [9]: 5
Plant response rating, Foxtail, Giant ([9]; 62 g ai/ha): 5
Plant response rating, Foxtail, Giant ([9]; 125 g ai/ha): 40
Plant response rating (scale 0 to 100), Ragweed [10]: 30
Ragweed plant response rating [10, 17]: 55
Ragweed plant response rating [10, 18]: 55
Plant response rating, Ragweed [10, 19]: 70
Plant response rating (scale 0 to 100), Morningglory [11]: 15
Morningglory plant response rating [11, 17]: 35
Morningglory plant response rating [11, 18]: 35
Plant response rating, Morningglory [11, 19]: 80
Plant response rating (scale 0 to 100), Ryegrass, Italian [12]: 0
Ryegrass, Italian plant response rating [12, 17]: 0
Ryegrass, Italian plant response rating [12, 18]: 0
Plant response rating, Ryegrass, Italian [12, 19]: 0
Plant response rating (scale 0 to 100), Barnyardgrass [13]: 5
Barnyardgrass plant response rating [13]: 5
Plant response rating, Barnyardgrass ([13]; 62 g ai/ha): 10
Plant response rating, Barnyardgrass ([13]; 125 g ai/ha): 15
Plant response rating (scale 0 to 100), Oilseed Rape [14]: 0
Oilseed Rape plant response rating [14, 17]: 10
Oilseed Rape plant response rating [14, 18]: 50
Plant response rating, Oilseed Rape [14, 19]: 98

Fc1cccc(Oc2ncc(Cl)cn2)c1-c1cc(C(F)(F)F)no1 [Compound 228]
Plant response rating, Blackgrass [1, 15]: 100
Plant response rating, Blackgrass [1, 16]: 60
Plant response rating, Galium [2, 15]: 100
Plant response rating, Galium [2, 16]: 100
Plant response rating (scale 0 to 100), Chickweed [3]: 85
Chickweed plant response rating [3]: 85
Plant response rating, Chickweed ([3]; 62 g ai/ha): 98
Plant response rating, Chickweed ([3]; 125 g ai/ha): 100
Plant response rating (scale 0 to 100), Corn [4]: 5
Corn plant response rating [4]: 10
Plant response rating, Corn ([4]; 62 g ai/ha): 10
Plant response rating, Corn ([4]; 125 g ai/ha): 10
Plant response rating (scale 0 to 100), Nutsedge, Yellow [5]: 5
Nutsedge, Yellow plant response rating [5, 17]: 5
Nutsedge, Yellow plant response rating [5, 18]: 5
Plant response rating, Nutsedge, Yellow [5, 19]: 10
Plant response rating (scale 0 to 100), Soybean [6]: 60
Soybean plant response rating [6, 17]: 55
Soybean plant response rating [6, 18]: 80
Plant response rating, Soybean [6, 19]: 80
Plant response rating (scale 0 to 100), Pigweed [7]: 85
Pigweed plant response rating [7, 17]: 95
Pigweed plant response rating [7, 18]: 95
Plant response rating, Pigweed [7, 19]: 98
Plant response rating (scale 0 to 100), Waterhemp [8]: 90
Waterhemp plant response rating [8, 17]: 95
Waterhemp plant response rating [8, 18]: 95
Plant response rating, Waterhemp [8, 19]: 100
Plant response rating (scale 0 to 100), Foxtail, Giant [9]: 10
Foxtail, Giant plant response rating [9]: 10
Plant response rating, Foxtail, Giant ([9]; 62 g ai/ha): 20
Plant response rating, Foxtail, Giant ([9]; 125 g ai/ha): 40
Plant response rating (scale 0 to 100), Ragweed [10]: 20
Ragweed plant response rating [10, 17]: 35
Ragweed plant response rating [10, 18]: 60
Plant response rating, Ragweed [10, 19]: 60
Plant response rating (scale 0 to 100), Morningglory [11]: 65
Morningglory plant response rating [11, 17]: 65
Morningglory plant response rating [11, 18]: 80
Plant response rating, Morningglory [11, 19]: 75
Plant response rating (scale 0 to 100), Ryegrass, Italian [12]: 0
Ryegrass, Italian plant response rating [12, 17]: 5
Ryegrass, Italian plant response rating [12, 18]: 15
Plant response rating, Ryegrass, Italian [12, 19]: 25
Plant response rating (scale 0 to 100), Barnyardgrass [13]: 15
Barnyardgrass plant response rating [13]: 20
Plant response rating, Barnyardgrass ([13]; 62 g ai/ha): 20
Plant response rating, Barnyardgrass ([13]; 125 g ai/ha): 35
Plant response rating (scale 0 to 100), Oilseed Rape [14]: 65
Oilseed Rape plant response rating [14, 17]: 85
Oilseed Rape plant response rating [14, 18]: 80
Plant response rating, Oilseed Rape [14, 19]: 98
